Where two headings read alike, the source gives them in different places.
Tests used:
Assay in all cases: Glasshouse assay for herbicidal activity (pre- and post-emergence), percentage phytotoxicity
Type in all cases: in vivo
Lolium perenne (LOLPE) = settings: Lolium perenne
Outline: (§1)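 Damage was rated visually as percent phytotoxicity, 100% meaning total kill, 20 days after pre-emergence application (made one day post-sowing) or 15 days after post-emergence application (made about 12 days post-sowing). Plants were grown under 16 h light, 65% humidity, warm species 24/18° C, cool 20/16° C.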

Avena fatua (AVEFA) = settings: Avena fatua
Outline: as §1

[1] = system: Echinochloa crus-galli (ECHCG); settings: Echinochloa crus-galli
Outline: as §1

[2] = system: Alopecurus myosuroides (ALOMY); settings: Alopecurus myosuroides
Outline: as §1

[3] = post-emergence, 360 h, Rate 250 g/ha, post-emergence, visual assessment 15 DAA, 100%=total damage, 0%=no damage, read-out: Post-emergence herbicidal activity (percentage phytotoxicity) LOLPE POST
[4] = pre-emergence, 480 h, Rate 250 g/ha, pre-emergence, visual assessment 20 DAA, 100%=total damage, 0%=no damage, read-out: Pre-emergence herbicidal activity (percentage phytotoxicity) LOLPE PRE
[5] = post-emergence, 360 h, Rate 250 g/ha, post-emergence, visual assessment 15 DAA, 100%=total damage, 0%=no damage, read-out: Post-emergence herbicidal activity (percentage phytotoxicity) AVEFA POST
[6] = pre-emergence, 480 h, Rate 250 g/ha, pre-emergence, visual assessment 20 DAA, 100%=total damage, 0%=no damage, read-out: Pre-emergence herbicidal activity (percentage phytotoxicity) AVEFA PRE
[7] = post-emergence, 360 h, Rate 250 g/ha, post-emergence, visual assessment 15 DAA, 100%=total damage, 0%=no damage, read-out: Post-emergence herbicidal activity (percentage phytotoxicity) ECHCG POST
[8] = pre-emergence, 480 h, Rate 250 g/ha, pre-emergence, visual assessment 20 DAA, 100%=total damage, 0%=no damage, read-out: Pre-emergence herbicidal activity (percentage phytotoxicity) ECHCG PRE
[9] = post-emergence, 360 h, Rate 250 g/ha, post-emergence, visual assessment 15 DAA, 100%=total damage, 0%=no damage, read-out: Post-emergence herbicidal activity (percentage phytotoxicity) ALOMY POST
[10] = pre-emergence, 480 h, Rate 250 g/ha, pre-emergence, visual assessment 20 DAA, 100%=total damage, 0%=no damage, read-out: Pre-emergence herbicidal activity (percentage phytotoxicity) ALOMY PRE
[11] = post-emergence, 360 h, POST-emergence, rate 250 g/ha, visual score 15 DAA (100%=total damage, 0%=no damage), read-out: Post-emergence herbicidal activity (percentage phytotoxicity) LOLPE POST
[12] = pre-emergence, 480 h, PRE-emergence, rate 250 g/ha, visual score 20 DAA (100%=total damage, 0%=no damage), read-out: Pre-emergence herbicidal activity (percentage phytotoxicity) LOLPE PRE
[13] = post-emergence, 360 h, POST-emergence, rate 250 g/ha, visual score 15 DAA (100%=total damage, 0%=no damage), read-out: Post-emergence herbicidal activity (percentage phytotoxicity) AVEFA POST
[14] = pre-emergence, 480 h, PRE-emergence, rate 250 g/ha, visual score 20 DAA (100%=total damage, 0%=no damage), read-out: Pre-emergence herbicidal activity (percentage phytotoxicity) AVEFA PRE
[15] = post-emergence, 360 h, POST-emergence, rate 250 g/ha, visual score 15 DAA (100%=total damage, 0%=no damage), read-out: Post-emergence herbicidal activity (percentage phytotoxicity) ECHCG POST
[16] = pre-emergence, 480 h, PRE-emergence, rate 250 g/ha, visual score 20 DAA (100%=total damage, 0%=no damage), read-out: Pre-emergence herbicidal activity (percentage phytotoxicity) ECHCG PRE
[17] = post-emergence, 360 h, POST-emergence, rate 250 g/ha, visual score 15 DAA (100%=total damage, 0%=no damage), read-out: Post-emergence herbicidal activity (percentage phytotoxicity) ALOMY POST
[18] = pre-emergence, 480 h, PRE-emergence, rate 250 g/ha, visual score 20 DAA (100%=total damage, 0%=no damage), read-out: Pre-emergence herbicidal activity (percentage phytotoxicity) ALOMY PRE

| Structure (SMILES) | pest or weed control at 250 g/ha (Lolium perenne (LOLPE); [3]) [%] | pest or weed control at 250 g/ha (Lolium perenne (LOLPE); [4]) [%] | pest or weed control at 250 g/ha (Avena fatua (AVEFA); [5]) [%] | pest or weed control at 250 g/ha (Avena fatua (AVEFA); [6]) [%] | pest or weed control at 250 g/ha [1, 7] [%] | pest or weed control at 250 g/ha [1, 8] [%] | pest or weed control at 250 g/ha [2, 9] [%] | pest or weed control at 250 g/ha [2, 10] [%] | pest or weed control at 250 g/ha (Lolium perenne (LOLPE); [11]) [%] | pest or weed control at 250 g/ha (Lolium perenne (LOLPE); [12]) [%] | pest or weed control at 250 g/ha (Avena fatua (AVEFA); [13]) [%] | pest or weed control at 250 g/ha (Avena fatua (AVEFA); [14]) [%] | pest or weed control at 250 g/ha [1, 15] [%] | pest or weed control at 250 g/ha [1, 16] [%] | pest or weed control at 250 g/ha [2, 17] [%] | pest or weed control at 250 g/ha [2, 18] [%] | further results |
| --- | --- | --- | --- | --- | --- | --- | --- | --- | --- | --- | --- | --- | --- | --- | --- | --- | --- |
| COCC(C)NC(=O)CC1CC(=O)C(c2c(C)cc(-c3ccc(F)cn3)cc2C)C1=O (stereo not drawn) [Compound B391] | 90 | 100 | 100 | 100 | 100 | 100 | 90 | 90 |  |  |  |  |  |  |  |  |  |
| C#CC(C)(C)NC(=O)CC1CC(=O)C(c2c(C)cc(-c3ccc(Cl)cn3)cc2C)C1=O (stereo not drawn) [Compound B363] | 90 | 100 | 100 | 90 | 100 | 100 | 90 | 100 |  |  |  |  |  |  |  |  |  |
| Cc1cc(C)c(C2C(=O)CC(CC(=O)NCc3ccccc3Br)C2=O)c(C)c1 (stereo not drawn) [Compound B22] |  |  |  |  |  |  |  |  |  |  |  |  |  |  |  |  | pest or weed control at 250 g/ha (Lolium perenne (LOLPE); post-emergence, 360 h, 250 g/ha, post-emergence, 15 DAA, visual assessment (100%=total damage, 0%=no damage), read-out: Post-emergence herbicidal activity (percentage phytotoxicity) LOLPE POST): 80%; pest or weed control at 250 g/ha (Lolium perenne (LOLPE); pre-emergence, 480 h, 250 g/ha, pre-emergence, 20 DAA, visual assessment (100%=total damage, 0%=no damage), read-out: Pre-emergence herbicidal activity (percentage phytotoxicity) LOLPE PRE): 90%; pest or weed control at 250 g/ha (Avena fatua (AVEFA); post-emergence, 360 h, 250 g/ha, post-emergence, 15 DAA, visual assessment (100%=total damage, 0%=no damage), read-out: Post-emergence herbicidal activity (percentage phytotoxicity) AVEFA POST): 20%; pest or weed control at 250 g/ha (Avena fatua (AVEFA); pre-emergence, 480 h, 250 g/ha, pre-emergence, 20 DAA, visual assessment (100%=total damage, 0%=no damage), read-out: Pre-emergence herbicidal activity (percentage phytotoxicity) AVEFA PRE): 100%; pest or weed control at 250 g/ha ([1]; post-emergence, 360 h, 250 g/ha, post-emergence, 15 DAA, visual assessment (100%=total damage, 0%=no damage), read-out: Post-emergence herbicidal activity (percentage phytotoxicity) ECHCG POST): 80%; pest or weed control at 250 g/ha ([1]; pre-emergence, 480 h, 250 g/ha, pre-emergence, 20 DAA, visual assessment (100%=total damage, 0%=no damage), read-out: Pre-emergence herbicidal activity (percentage phytotoxicity) ECHCG PRE): 90%; pest or weed control at 250 g/ha ([2]; post-emergence, 360 h, 250 g/ha, post-emergence, 15 DAA, visual assessment (100%=total damage, 0%=no damage), read-out: Post-emergence herbicidal activity (percentage phytotoxicity) ALOMY POST): 30%; pest or weed control at 250 g/ha ([2]; pre-emergence, 480 h, 250 g/ha, pre-emergence, 20 DAA, visual assessment (100%=total damage, 0%=no damage), read-out: Pre-emergence herbicidal activity (percentage phytotoxicity) ALOMY PRE): 30% |
| COCC(C)(C)NC(=O)CC1CC(=O)C(c2c(C)cc(-c3ncc(F)cn3)cc2C)C1=O (stereo not drawn) [Compound B327] |  |  |  |  |  |  |  |  | 90 | 100 | 100 | 80 | 100 | 100 | 100 | 100 |  |
| C#CCN(C)C(=O)CC1CC(=O)C(c2c(C)cc(-c3ccc(F)cn3)cc2C)C1=O (stereo not drawn) [Compound B394] | 90 | 100 | 100 | 100 | 100 | 100 | 100 | 100 |  |  |  |  |  |  |  |  |  |
| COCC(C)NC(=O)CC1CC(=O)C(c2c(C)cc(-n3cc(Cl)cn3)cc2C)C1=O (stereo not drawn) [Compound B309] |  |  |  |  |  |  |  |  | 60 | 80 | 100 | 80 | 100 | 100 | 100 | 90 |  |
